Laboratory results from patent publication US20040014217A1, “Methods of transfection” (priority 2000, published 2004).

Columns and labels:
1HAEo-cells [1] = assay: Luminometric luciferase assay, EGTA effects, 1HAEo- cells; assay type: cell-based, human; settings: 2 mM EGTA prior to transfection, 2 washes
Protocol: The confluent (A) and subconfluent (B) 1HAEo-cells were transfected with LID complexes after pre-treatment with EGTA (EGTA) or in the presence of EGTA (LID+EGTA).
To enhance the efficiency of transfection in confluent epithelial cells, several agents were tested including EGTA (Sigma, Poole, UK), trypsin/EDTA (Sigma, Poole, UK), water, and mouse anti human E-cadherin antibody (Serotec Ltd, Oxford, UK). It was carried out firstly by comparing the effects of pretreatment of the cells with EGTA, water and Trypsin/EDTA with EGTA formulated into LID vector without pretreatment. […]
Twenty-four hours after transfection with pCI-luciferase, is cells were washed with PBS, lysed by adding 100 μl of Reporter Lysis Buffer (Promega, Southampton, UK) and detached from the plate by manual scraping using micropipette tips. […] The activity of luciferase was assayed with a luciferase assay kit (Promega, Southampton, UK) on a Lucy-1 plate-reading luminometer (Anthos, Salzburg, Austria). The protein concentration of each sample was determined with Protein Assay Reagent (BioRad Laboratories, Hertfordshire, UK) by measuring absorbance at 595 nm and the specific activity of luciferase was expressed as relative light unit per milligram protein (RLU/mg protein).

1HAEo-cells [2] = assay: BrdU incorporation by flow cytometry, 1HAEo- cells; assay type: cell-based, human; settings: EGTA 2 mM, aphidicolin 10 μg/ml where present
Protocol: A BrdU Labelling and Detection Kit (Roche, Basel, Switzerland) was used, which contains the BrdU labelling reagent and the monoclonal mouse anti-BrdU. […] Cells were washed with PBS and incubated with a second layer antibody, Texas Red labelled horse anti-mouse IgG (Vector Laboratories, Peterborough, UK), for 30 minutes at 37° C. and then analysed by flow cytometry at the wavelength of 575±20 nm as detailed above. In some experiments, aphidicolin, a cell-proliferation inhibitor blocking the cell cycle in S-phase, was added to the cells to observe the effects on transfection efficiency.

1HAEo-cells [3] = assay: pEGFP transfection efficiency by flow cytometry, 1HAEo- cells, Example 15; assay type: cell-based, human; settings: EGTA 2 mM versus no EGTA
Protocol: Human airway epithelial cell lines, a normal cell line 1HAEo- and a CF cell line 2CFSMEo-, were used in this study. […] The apical medium was then removed and growth medium was added basolateraly to leave the cells growing at an air-liquid interface. Confluent cells were grown for further 10-14 days and were monitored with an ohmmeter (EVOM; World Precision Instruments, Stevenage, UK) until the transepithelial resistance was greater than 300 Ω·cm before transfection. […] Sub-confluent, proliferating cells were prepared by growing the cells for less then 3 days in growth medium prior to transfection.
Briefly, stock solutions of the three components of the LID vector complex were prepared first. Plasmid DNA (component D) was diluted in cell culture medium OptiMEM (Life Technologies, Paisley, UK) at a concentration of 0.01 μg/μl. […] The peptide component I was dissolved in Opti-MEM at 0.1 mg/ml. The lipid component L was Lipofectin, a commercially available equimolar mixture of the cationic lipid N-[1-(2,3-dioleyloxy)propyl]-n,n,n-trimethylammonium chloride (DOTMA) and the neutral lipid dioleoyl phosphotidylethanolamine (DOPE), (Life Technologies, Paisley, UK) and was used from purchase at 1 mg/ml. […]

confluent 1HAEo-cells [4] = assay: Binding of FITC-labelled LID complexes to confluent cells; assay type: cell-based, human; settings: 2 mM EGTA, 4° C.
Protocol: The effects of EGTA on cell binding were determined by transfection with LID complexes prepared with fluorescein (FITC) labelled peptide. Peptide-12 was labelled with FITC from a labelling kit (Calbiochem, San Diego, USA) and purified by dialyzing in PBS overnight, according to the manufacturer's instruction. The ability of FITC-conjugated peptide-12 to form complexes with plasmid DNA was determined by retardation test, in which the electrophoresis migration of DNA is retarded by forming complexes with the cationic peptide as described previously (Hart et al., 1995). […] The cells were then transfected with apically added LID-FITC for 60 minutes at 4° C., at which the complexes would only bind to cell surface and no internalisation would occur, see(Chu et al (1999), Cornelissen et al (1997), Im et al (1986). The surface binding of the LID complexes was further differentiated from the internalised LID by incubating the cells with 1 μg/ml crystal violet (Sigma, Poole, UK) for 10 minutes at 4° C., to quench the fluorescence of surface-bound LID complexes, see (Ma et al (1997), Van Amers & Van Strijp (1994). The mean numbers of fluorescent particles were then counted in 10 random microscope fields and comparison was made between the data obtained from EGTA-treated or untreated cells.

confluent 1HAEo-cells [5] = assay: Immunofluorescence for tight junction protein occludin; assay type: cell-based, human; settings: 2 mM EGTA in Opti-MEM, 30 minutes
Protocol: To observe the double fluorescence labelling, the β-galactosidase-transfected and BrdU-labelled (as detailed above in Assay of cell proliferation) cells were fixed with 70% ethanol in 50 mM glycine buffer, pH 2.0, for 30 minutes at −20° C. The cells were then incubated with a mixture of two primary antibodies, the rabbit anti-p-galactosidase at 1:200 (Chemicon International Inc, Harrow, UK). and the mouse anti-BrdU at 1:10 (BrdU Labelling and Detection Kit; Roche, Basel, Switzerland), followed by incubation with a mixture of FITC-conjugated goat anti-rabbit IgG and texas red labelled horse anti-mouse IgG (Vector Laboratories, Peterborough, UK). Transwell inserts were then excised from the plastic holder and mounted on glass slides with aqueous mountant Vectashield (Vector Laboratories, Peterborough, UK). To observe the effects of EGTA on tight junction, the EGTA-treated cells were immunostained with a rabbit polyclonal antibody against tight junction protein occludin (Zymed, San Francisco, USA) diluted 1:10 with PBS. […] Images were observed and captured with an inverted fluorescence microscope (Olympus IX70, Olympus Optical Company, London, UK) for transwell and a confocal microscope (Leica TCS SP, Exton, Pa., USA) for excised inserts.

mouse lung = assay: Transfection of mouse lungs in vivo (luciferase), intra-tracheal instillation
Protocol: Lipid (lipofectin) (1 mg/ml) and peptide 6 ([sequence]) (1 mg/ml) were mixed in one tube and pCILuc Plasmid DNA (1 mg/ml) and EGTA in phosphate buffer saline (PBS) were mixed together in another tube then the contents of the two tubes were mixed so that the final ratios were 0.75 μg lipid to 1 μg DNA and a final concentration of 100 mM EGTA (or no EGTA for the control). The protocol was repeated to give vector complexes having a final EGTA concentration of 400 mM.
Each mouse received 8 μg of plasmid DNA in a volume of 50 μl.
Cell lysis buffer (Promega, Southampton, England) was added to each lung (4 μl/mg). The tissue was then homogenised two times, on ice, for 30 seconds each time (Polytron PT10-35, Philip Harris, Nottingham, England). Lung homogenates were is centrifuged at 10,000×g at 4 C for 10 minutes, then 20 μl of the supernatant were added to 100 μl of luciferase assay buffer (Promega) and luminescence measured in a luminometer (TD-20/20; Steptech Instruments, Stevenage, England). All results were repeated in triplicate and the mean calculated.
The total protein concentration in the lysate was measured using a protein assay kit (Bio-Rad, Hemel Hempstead, Herts, England) and using bovine serum albumin as a standard. Luciferase activity was expressed in relative light units (RLU) for each sample of lung lysate minus the background and normalised per mg of protein.

O=C(O)CN(CCOCCOCCN(CC(=O)O)CC(=O)O)CC(=O)O [EGTA, ethylene glycol-bis(β-aminoethyl ether)-N,N,N′,N′-tetraacetic acid]
enhancement of transfection, EGTA pre-treatment protocol, confluent cells (1HAEo-cells [1]): no enhancement
BrdU-positive cells, sub-confluent 1HAEo- cells (1HAEo-cells [2]): about 24%
increase in transfection efficiency of confluent cells (1HAEo-cells [3]): 4 fold
binding of LID particles to confluent cells (confluent 1HAEo-cells [4]): greatly increased
effect on tight junctions (occludin immunofluorescence) (confluent 1HAEo-cells [5]): disrupted the tight junctions
enhancement of transfection of mouse lung (luciferase, RLU per mg lung protein) (mouse lung; 100 mM EGTA, 8 μg plasmid DNA in 50 μl, intra-tracheal): about four-fold
lethality (mouse lung; 400 mM EGTA in vivo): lethal in many cases
